Data on eleven compounds can be found in US20060222671A1, “Dermatological compositions and salts for the treatment of dermatological diseases” (Astion Development A/S, priority 2005, published 2006).

The subject of data set [1] is oxazolone induced ear inflammation in mice. Nature of the data set: Oxazolone induced mouse ear oedema assay. Type of data set: in vivo. The conditions noted are these: for % inhibition of ear swelling: 24 hours after challenge; for inhibition of the formation of ear oedema: Example 7: 500 μg/ear dissolved in 96% ethanol. The procedure: This screening method is commonly employed for screening and evaluation of anti-inflammatory drugs, in particular with respect to the inflammation seen in contact dermatitis. Betamethasone-17 valerate was used as the positive control. […] Betamethasone was administered topically in quantities of 20 μg/ear. Betamethasone was applied in the commercial form Celeston valerate® 0.1%. All groups were immunised with 20 μl oxazolone, 1.6% in ethanol 96% (w/v) on the left and the right ear. The ear thickness of all mice on both the left and right side was measured with an electronic measuring gauge. All groups were challenged with 20 μl oxazolone (1.6% in ethanol 96% (w/v)) on the left ear and the right ear. Vehicle (acetone) or test article solutions were administered 20 minutes before and 20 minutes after oxazolone challenge. 24 hours after oxazolone challenge the ear thickness of all mice was measured with an electronic measuring gauge. Mean thickness of the ears and standard deviations were calculated. Ear swelling was calculated as the difference between the ear thickness day 7 and day 8. […] Differences in ear swelling between the vehicle treated group and the other groups were tested for significance employing a non-parametric statistical method of analysis, the Mann-Whitney U test. The required level of significance was p<0.05. […] Both test articles were applied in a dose of 500 μg/ear and dissolved in 96% ethanol. Betamethasone, as the positive control was administered topically in quantities of 20 μg/ear.

Data set [2] concerns Phosphodiesterase PDE IV. In words: Phosphodiesterase PDE IV enzyme assay (MDS Pharma Service No. 154000). Type of data set: biochemical. The procedure: (§1) The enzyme assays were conducted by MSD Pharma Services.
Data set [3] has as its target T1, Protein Tyrosine Kinase, SYK (Homo sapiens, UniProt P43405).
T1 construct: purchased MDS Pharma Services (contract assay) 155761
In words: Protein Tyrosine Kinase SYK enzyme assay (MDS Pharma Service No. 155761). The class given is biochemical. The procedure: as §1

In data set [4] the target is T2, Protein Tyrosine Kinase, ZA70 (ZAP-70) (Homo sapiens, UniProt P43403).
T2 construct: purchased MDS Pharma Services (contract assay) 155987
T2 sequence (P43403 1-619): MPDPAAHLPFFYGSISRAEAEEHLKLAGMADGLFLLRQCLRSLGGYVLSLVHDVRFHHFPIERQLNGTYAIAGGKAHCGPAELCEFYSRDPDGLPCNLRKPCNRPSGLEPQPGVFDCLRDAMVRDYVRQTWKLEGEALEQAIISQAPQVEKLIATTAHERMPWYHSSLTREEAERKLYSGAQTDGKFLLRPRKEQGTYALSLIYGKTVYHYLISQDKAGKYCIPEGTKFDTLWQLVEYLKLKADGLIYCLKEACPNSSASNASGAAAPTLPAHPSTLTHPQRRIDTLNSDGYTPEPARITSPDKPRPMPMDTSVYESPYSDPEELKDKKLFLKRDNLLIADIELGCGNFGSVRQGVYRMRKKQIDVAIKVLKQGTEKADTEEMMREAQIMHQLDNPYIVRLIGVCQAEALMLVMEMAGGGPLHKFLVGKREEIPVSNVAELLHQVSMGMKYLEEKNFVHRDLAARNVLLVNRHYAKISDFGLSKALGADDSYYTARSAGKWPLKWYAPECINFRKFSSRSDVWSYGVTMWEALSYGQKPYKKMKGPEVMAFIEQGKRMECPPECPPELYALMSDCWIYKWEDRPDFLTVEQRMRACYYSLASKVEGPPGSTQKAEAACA
Nature of the data set: Protein Tyrosine Kinase ZA70 (ZAP-70) enzyme assay (MDS Pharma Service No. 155987). The class given is biochemical. The procedure: as §1

The subject of data set [5] is skin. The conditions noted are these: in vivo; cited from earlier work.
Data set [6] concerns guinea pig skin. The settings on record: in vivo. The procedure: Test for skin sensitization is carried out according to the Magnusson and Kligman method (J. Invest. Dermatol. 1969. 52, 268-276) and in accordance with O.E.C.D. Guideline No. 406 of Jul. 17th, 1992, and the test method B.6 of the 96/54 E.E.C Directive.
Albino guinea pigs of Dunkin-Hartley strain were exposed to the test item after an acclimatisation period of at least five days.
The Maximum Non Necrotizing Concentration (M.N.N.C.) was determined by injecting by intradermal route the following concentrations: 2.5%, 1.25%, 0.625%, 0.3125%, 0.1562% and 0.078% diluted in physiological saline solution.
Pre-Maximum Non Irritant Concentration (pre-M.N.I.C.) was determined by application of the test item under an occlusive dressing during 24 hours, at the following concentrations: 2.5%, 1.25%, 0.625%, 0.3125% diluted in physiological saline solution.
Maximum Non Irritant Concentration (M.N.I.C.) was determined by initially establishing an induction phase by intradermal injection with a physiological saline solution and by topical application of distilled water followed by a 18-day rest phase. In the challenge phase where the test item is under occlusive dressing for 24 hours, the test item was applied to the skin of the Albino guinea pigs at the following concentrations: 2.5%, 1.25%, 0.625%, 0.3125% diluted in physiological saline solution.

For data set [7], the system named is undamaged skin area. Nature of the data set: Acute dermal irritation. Type of data set: in vivo. The settings on record: for cutaneous reactions (erythema and oedema): 0.5 mL patch. The procedure:
The sample was applied at a dose of 0.5 mL, on an undamaged skin area of the right flank of each animal. The patch was secured in position with a strip of surgical adhesive tape.
On the left flank an untreated area served as the control.
The skin reactions were evaluated after 1 hour and then after 24, 48 and 72 hours following removal of the patch according to the following grading scale:
Erythema (0: No erythema, 1: Slight (barely perceptible) erythema, 2: Definite erythema, 3: Moderate to severe erythema, 4: Severe erythema (purple) with formation of eschars (deep lesions) preventing erythema from being grading).
Oedema (0: No oedema, 1: Very slight (barely perceptible) oedema, 2: Slight oedema (contour clearly defined), 3: Moderate oedema (thickness), 4: Severe oedema (thickness greater than 1 mm, surface larger than zone of application)

For data set [8], the system named is guinea pig skin. The conditions noted are these: in vivo. This is another data set of the same source.
Protocol: Test for photo toxicity is carried out to evaluate the risk of cutaneous reactions on the guinea pig following exposure to ultraviolet radiation.
Thirty minutes after the treatment, the animals were subjected to ultraviolet radiations (UV-B first and then UV-A).
The animals were irradiated with the irradiation source VLX 3W (Biotronic, Vilbert Lourmat) at the Maximal Non Erythemateous Dose (M.N.E.D) 7000 J/cm2 for UV-A and 150 mJ/cm2 for the UV-B.
A macroscopic evaluation of the cutaneous reactions (erythema and oedema) was conducted 24 and 48 hours after irradiation.
The conditions of data set [9]: 25° C.; cited from earlier work.
The target in data set [10] is T3, anandamide hydrolase (a fatty acid amide hydrolase) (Homo sapiens, UniProt O00519).
T3 construct: host or cells: neurons
T3 sequence (O00519 1-579): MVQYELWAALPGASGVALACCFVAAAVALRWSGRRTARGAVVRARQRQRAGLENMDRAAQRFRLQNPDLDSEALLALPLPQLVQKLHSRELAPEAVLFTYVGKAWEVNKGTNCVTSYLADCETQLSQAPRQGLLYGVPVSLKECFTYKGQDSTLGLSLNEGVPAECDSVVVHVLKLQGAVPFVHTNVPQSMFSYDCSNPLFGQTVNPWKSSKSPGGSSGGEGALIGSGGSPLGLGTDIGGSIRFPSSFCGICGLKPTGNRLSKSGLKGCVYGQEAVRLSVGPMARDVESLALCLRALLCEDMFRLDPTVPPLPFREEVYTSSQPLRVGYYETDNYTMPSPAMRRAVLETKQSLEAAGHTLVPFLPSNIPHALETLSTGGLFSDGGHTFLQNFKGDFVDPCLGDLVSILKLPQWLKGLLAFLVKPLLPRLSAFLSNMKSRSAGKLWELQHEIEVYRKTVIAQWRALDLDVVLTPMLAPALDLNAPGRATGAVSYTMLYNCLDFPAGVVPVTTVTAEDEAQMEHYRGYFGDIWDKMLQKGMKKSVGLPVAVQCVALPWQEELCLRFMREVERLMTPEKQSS
The settings on record: in neurons; cited from earlier work.

Data set [11] deals with NF-kappaB activation. The conditions noted are these: in inflammatory cells; cited from earlier work.
For data set [12], the system named is activated monocytes. The conditions noted are these: cited from earlier work.
Data set [13] has as its system inflammation following treatment with cryotherapy. The settings on record: topical; moderate to severe inflammation following cryotherapy; cited from earlier work.
For data set [14], the system named is human skin inflammation. The conditions noted are these: topical treatment; cited from earlier work.
Data set [15] deals with chronic stable plaque psoriasis. The conditions noted are these: topical 1%; cited from earlier work.
Data set [16] deals with contact dermatitis. The settings on record: topically applied; cited from earlier work.
Where [17] appears, read: Oxaprozin as the monoethanolamine salt.
The mark [18] stands for this setting: monoethanolamine salt 5% by weight in water.

A word on the IC50: it is the concentration that inhibits the measured activity by half.

“Also recorded” adds a separate entry of the source.

Regarding `CCCCC(=O)O[C@]1(C(=O)CO)[C@@H](C)C[C@H]2[C@@H]3CCC4=CC(=O)C=C[C@]4(C)[C@@]3(F)[C@@H](O)C[C@@]21C` [Betamethasone 17-valerate], the “% inhibition of ear swelling” value in [1] (20 μg/ear topical (Celeston valerate 0.1%)) is 66%.
As for `CCCCOc1ccc(CC(=O)NO)cc1` [Bufexamac], the “inhibitory effect on the PDE-IV enzyme” value in data set [2] was “exhibits inhibitory effect”. In addition, in data set [3], the “inhibitory effect on Protein Tyrosine Kinase SYK” value was “only exhibits inhibitory effect on the PDE-IV enzyme”. Further, the “inhibitory effect on Protein Tyrosine Kinase ZAP-70” value in data set [4] was “only exhibits inhibitory effect on the PDE-IV enzyme”. Besides, the “inhibition of the formation of ear oedema” value in data set [1] was “did not inhibit the formation of ear oedema at all”. Further, the cutaneous side effects result in [5] is recorded as “reported to cause contact allergy; also recorded: major contact allergens”.
For the compound `O=C(O)Cc1ccccc1Nc1c(Cl)cccc1Cl` [Diclofenac], in [5], the cutaneous side effects result is “irritant-type contact dermatitis may develop”.
Consider `CC(C(=O)O)c1cccc(C(=O)c2ccccc2)c1` (stereo not shown) [Ketoprofen], for which, in [5], the cutaneous side effects entry is “major contact allergens”.
For the compound `O=C(O)CCc1nc(-c2ccccc2)c(-c2ccccc2)o1` [Monoethanolamine Oxaprozin], the concentration for half-maximal inhibition (IC50) turned out to be 22 µM in data set [2] (setting [17]), 28 µM in data set [3] (setting [17]) and 38 µM in data set [4] (setting [17]). Further, the “% inhibition of ear swelling” value in data set [1] (250 μg/ear topical in acetone, 20 min before and after challenge) worked out at 53%; in data set [1] (500 μg/ear topical in acetone, 20 min before and after challenge) it was 77%; in [1] (1000 μg/ear topical in acetone, 20 min before and after challenge), 95%. Also, the “inhibition of ear swelling (in words)” value in [1] (250-1000 μg/ear) was “dose dependent and highly significant inhibition of ear swelling”. Also, the “inhibition of ear swelling compared with positive control” value in [1] (highest dose (1000 μg/ear) vs Betamethasone 17-valerate 20 μg/ear) was “significantly stronger than the inhibition obtained with Betamethasone 17-valerate”. Moreover, in data set [6], the skin sensitization result is “not causing sensitization reactions”.
Regarding `O=C(O)CCc1nc(-c2ccccc2)c(-c2ccccc2)o1` [Oxaprozin, 4,5-diphenyl-2-oxazole-propionic acid], the “inhibition of the formation of ear oedema” value in data set [1] is on record as “statistically significant inhibition of the formation of ear oedema”. Also, the “cutaneous reactions (erythema and oedema)” value is “no cutaneous reactions (erythema and oedema) were observed” in data set [7] (monoethanolamine salt 2.5% by weight in water, 1, 24, 48, 72 hours); “only a slight erythema on the treated area at the reading time 1 hour” in data set [7] (setting [18]). Also, the reversibility of erythema entry in [7] (setting [18]) is “totally reversible between the 2nd and the 3rd day of the test”. In addition, in [8], the photo toxicity result is recorded as “not phototoxic”. Moreover, in [9], the solubility in water result is “about 1.7 mg/ml”. Further, the “inhibition of anandamide hydrolase” value in data set [10] is recorded as “inhibits”. Also, in data set [11], the “inhibition of NF-kappaB activation” value is reported as “inhibits”. Besides, the “apoptosis of activated monocytes” value in data set [12] is “induces apoptosis of activated monocytes in a dose-dependent manner”.
Turning to `CC(=O)Oc1ccccc1C(=O)O` [aspirin], the cutaneous side effects result in data set [5] was “may induce urticarial reactions”.
Regarding `CCC(=O)O[C@]1(C(=O)CCl)[C@@H](C)C[C@H]2[C@@H]3CCC4=CC(=O)C=C[C@]4(C)[C@@]3(F)[C@@H](O)C[C@@]21C` [clobetasol propionate], the “relief of erythema and oedema” value in data set [13] was “proved to have effect”.
In the case of `CC(C(=O)O)c1ccc(-c2ccccc2)c(F)c1` (stereo not shown) [flubiprofen], the “effect on human skin inflammation” value in data set [14] is reported as “reduces human skin inflammation”.
As to `COc1ccc2c(c1)c(CC(=O)O)c(C)n2C(=O)c1ccc(Cl)cc1` [indomethacin], the “relief of erythema and oedema” value in [13] is “poor effect in relieving the erythema and oedema”. The “effect on chronic stable plaque psoriasis” value in data set [15] is given as “no effect”. Besides, in data set [16], the “response in animal model of contact dermatitis” value is recorded as “shown to respond”. Besides, the cutaneous side effects result in data set [5] is given as “may induce urticarial reactions”.
As for `CN1C(C(=O)Nc2ccccn2)=C(O)c2ccccc2S1(=O)=O` [piroxicam], the cutaneous side effects entry in data set [5] was “can lead to phototoxic or photo allergic dermatitis”.
